Results as given in the NIST ThermoML archive (doi:10.1016/j.fluid.2016.08.014).

Assays:
[1] = Liquid, Vibrating tube method
[2] = refractive index (Na D-line) (dimensionless); settings: 298.15 K; 101.33 kPa; Liquid; Standard Abbe refractometry

CNC=O [N-methylformamide]
[1]
Settings	mass density [kg/m3]
293.15 K, 200 kPa	1004
293.15 K, 500 kPa	1004
293.15 K, 1000 kPa	1004
293.15 K, 2500 kPa	1005
293.15 K, 5000 kPa	1006
293.15 K, 7600 kPa	1008
293.15 K, 10100 kPa	1009
293.15 K, 15000 kPa	1012
293.15 K, 20100 kPa	1015
293.15 K, 25100 kPa	1017
293.15 K, 30100 kPa	1020
293.15 K, 35000 kPa	1023
298.15 K, 101.33 kPa	999.361
303.15 K, 200 kPa	995
303.15 K, 500 kPa	995
303.15 K, 1100 kPa	995
303.15 K, 2500 kPa	996
303.15 K, 5100 kPa	998
303.15 K, 7600 kPa	999
303.15 K, 10000 kPa	1000
303.15 K, 15100 kPa	1004
303.15 K, 20100 kPa	1006
303.15 K, 25100 kPa	1009
303.15 K, 30000 kPa	1012
303.15 K, 35000 kPa	1014
313.15 K, 200 kPa	986
313.15 K, 500 kPa	986
313.15 K, 1100 kPa	987
313.15 K, 2600 kPa	987
313.15 K, 5100 kPa	989
313.15 K, 7500 kPa	990
313.15 K, 10100 kPa	992
313.15 K, 15000 kPa	995
313.15 K, 20000 kPa	998
313.15 K, 25100 kPa	1001
313.15 K, 30000 kPa	1004
313.15 K, 35000 kPa	1006
323.15 K, 100 kPa	977
323.15 K, 500 kPa	977
323.15 K, 1000 kPa	978
323.15 K, 2500 kPa	979
323.15 K, 5000 kPa	980
323.15 K, 7500 kPa	982
323.15 K, 10000 kPa	984
323.15 K, 15100 kPa	987
323.15 K, 20100 kPa	990
323.15 K, 25000 kPa	993
323.15 K, 30100 kPa	996
323.15 K, 35100 kPa	999
333.15 K, 100 kPa	969
333.15 K, 500 kPa	969
333.15 K, 1000 kPa	969
333.15 K, 2500 kPa	970
333.15 K, 5000 kPa	972
333.15 K, 7500 kPa	974
333.15 K, 10000 kPa	975
333.15 K, 15000 kPa	979
333.15 K, 20100 kPa	982
333.15 K, 25000 kPa	985
333.15 K, 30000 kPa	988
333.15 K, 35000 kPa	990
343.15 K, 100 kPa	960
343.15 K, 500 kPa	960
343.15 K, 1000 kPa	960
343.15 K, 2500 kPa	962
343.15 K, 5100 kPa	963
343.15 K, 7500 kPa	965
343.15 K, 10100 kPa	967
343.15 K, 15100 kPa	970
343.15 K, 20000 kPa	973
343.15 K, 25100 kPa	977
343.15 K, 30100 kPa	980
343.15 K, 35100 kPa	983
353.15 K, 100 kPa	950
353.15 K, 500 kPa	950
353.15 K, 1000 kPa	952
353.15 K, 2500 kPa	953
353.15 K, 5100 kPa	955
353.15 K, 7600 kPa	957
353.15 K, 10000 kPa	958
353.15 K, 15100 kPa	962
353.15 K, 20100 kPa	965
353.15 K, 25000 kPa	969
353.15 K, 30100 kPa	972
353.15 K, 35100 kPa	975
363.15 K, 100 kPa	942
363.15 K, 500 kPa	943
363.15 K, 1000 kPa	943
363.15 K, 2500 kPa	944
363.15 K, 5100 kPa	946
363.15 K, 7600 kPa	948
363.15 K, 10100 kPa	950
363.15 K, 15100 kPa	954
363.15 K, 20100 kPa	957
363.15 K, 25000 kPa	960
363.15 K, 30100 kPa	964
363.15 K, 35000 kPa	967
373.15 K, 100 kPa	934
373.15 K, 500 kPa	934
373.15 K, 1000 kPa	934
373.15 K, 2500 kPa	936
373.15 K, 5100 kPa	938
373.15 K, 7600 kPa	940
373.15 K, 10000 kPa	941
373.15 K, 15100 kPa	945
373.15 K, 20100 kPa	949
373.15 K, 25000 kPa	952
373.15 K, 30100 kPa	956
373.15 K, 35000 kPa	959
398.15 K, 100 kPa	911
398.15 K, 500 kPa	912
398.15 K, 1100 kPa	912
398.15 K, 2500 kPa	913
398.15 K, 5000 kPa	916
398.15 K, 7600 kPa	918
398.15 K, 10000 kPa	920
398.15 K, 15000 kPa	924
398.15 K, 20100 kPa	928
398.15 K, 25000 kPa	932
398.15 K, 30000 kPa	936
398.15 K, 35100 kPa	940
423.15 K, 100 kPa	888
423.15 K, 500 kPa	889
423.15 K, 1000 kPa	889
423.15 K, 2600 kPa	890
423.15 K, 5100 kPa	893
423.15 K, 7500 kPa	896
423.15 K, 10000 kPa	898
423.15 K, 15200 kPa	903
423.15 K, 20100 kPa	907
423.15 K, 25100 kPa	911
423.15 K, 30100 kPa	916
423.15 K, 35100 kPa	920

Settings	refractive index
[2]	1.43063
